The values that follow are results of earlier work, collected in US20130217743A1, “CANCER PREVENTION AND TREATMENT METHODS BASED ON DIETARY POLYAMINE CONTENT” (CANCER PREVENTION PHARMACEUTICALS, INC., priority 2010, published 2013).

Series [1] has as its system tumors harboring Ki-ras mutations. Particulars: AOM-treated rats; reduced from 90%.
The next series has as its system tumor putrescine levels. Particulars: rat-tumor model, DFMO infusion.
The subject of series [2] is prostoglandin E2 (PGE2) levels in flat mucosa. Particulars: 300 mg/day, one month.
For series [3] the following is noted: for mean half-life: in vivo.
For series [4] the following is noted: human, in vivo.

On to `NCCCC(N)(C(=O)O)C(F)F` (racemic) [DFMO, 2-(difluoromethyl)-dl-ornithine], for which the “number of tumors harboring Ki-ras mutations” value in series [1] is listed as 36%. The “decrease in tumor putrescine levels” value with tumor putrescine levels is listed as 90%.
For the compound `CC1=C(CC(=O)O)c2cc(F)ccc2/C1=C\c1ccc(S(C)(=O)=O)cc1` [Sulindac sulfone], in the series on COX, the COX-inhibitory activity result was “lacks COX-inhibitory activity”.
Take `CC(C)Cc1ccc(C(C)C(=O)O)cc1` (centres unmarked) [ibuprofen]: the “PGE2 levels in flat mucosa” value in series [2] was “significant decrease”.
Consider `CN1C(C(=O)Nc2ccccn2)=C(O)c2ccccc2S1(=O)=O` [piroxicam, 4-hydroxy-2-methyl-N-2-pyridyl-2H-1,2-benzothiazine-3-carboxamide 1,1-dioxide], for which the “number of tumors harboring Ki-ras mutations” value in series [1] is 25%.
Take `CSc1ccc(/C=C2/C(C)=C(CC(=O)O)c3cc(F)ccc32)cc1` [sulfide metabolite]: in series [3], the mean half-life is 16.4 h.
In the case of `CC1=C(CC(=O)O)c2cc(F)ccc2/C1=C\c1ccc([S+](C)[O-])cc1` (centres unmarked) [sulindac, (Z)-5-fluoro-2-methyl-1-((4(methylsulfinyl)phenyl)methylene) 1H-indene-3-acetic acid], the drug absorbed entry in series [3] (after oral administration) was “about 90%”. In addition, the “time to peak plasma levels” value in series [3] (fasting patients) is recorded as “about 2 hours”. The mean half-life in series [3] is 7.8 h. In series [4], the “mild gastrointestinal effects, patients” value is on record as ~20%; the “skin rash and pruritus, patients” value was 5%.
